Source: patent US12630523B2, “Isoquinoline derivatives for use as antiviral and antitumour agents” (priority 2021, dated 2026)

Columns and labels:
[1] = tested on: SARS-CoV-2 isolate BetaCov/Belgium/GHB-03021/2020; assay: microbe, parasite or virus in culture; type: cell-based; conditions: 1.25 μM (non-toxic compound concentration), n4; for inhibition at 1.25 µM: Severe acute respiratory syndrome coronavirus 2
HPV16 E7 protein = target: T1, HPV16 E7 protein (Human papillomavirus type 16, UniProt P03129); type: cell-based; conditions: CaSki cells; adjusted degradation, CHX steady state set to 100% degradation
T1 construct: endogenous in cells; host or cells: CaSki cells (HPV16-positive cervical carcinoma)
Description: For intracellular antibody labeling, 0.5×10^6 cells are washed once with 1 ml ice-cold PBS. Cells are centrifuged at 350×g for 5 minutes at 4° C. and then fixed in 1% paraformaldehyde (1 ml/10^6 cells) for 20 minutes at 4° C. Cells are washed with 1 ml ice-cold PBS and centrifuged at 350×g for 5 minutes at 4° C. To permeabilize cells, 100% ice-cold methanol (1 ml/10^6 cells) is added to the cells and incubated for 20 minutes at 4° C. followed by centrifugation at 350×g for 5 minutes at 4° C. Cells are washed with 1 ml ice-cold PBS, centrifuged at 350×g for 5 minutes at 4° C. and resuspended in 0.1% saponin+2% FBS in PBS (ice-cold). Cells are left for 20-30 minutes at room temperature to reduce the background signal and then centrifuged at 350×g for 5 minutes at 4° C. The primary antibody (mAb_HPV16E7-1 (VS13004); concentration 1 μg/μl) is diluted in 0.1% saponin+2% FBS (dilution 0.25 μg/50 μl of incubation buffer per 1×10^6 cells (5 ng/μl)). Cells are incubated with primary antibody for 30 minutes at room temperature, washed with 0.1% saponin+2% FBS and centrifuged at 350×g for 5 minutes at 4° C. The secondary antibody (FITC conjugated goat anti-mouse IgG1-IgM, BD, cat. #555988) is diluted in 0.1% saponin+2% FBS (dilution 1:50). Cells are incubated with secondary antibody for 30 minutes at room temperature, washed once with 0.1% saponin+2% FBS, once with PBS and centrifuged at 350×g for 5 minutes at 4° C.
Cells are resuspended in 700 μl PBS prior to CF analysis with a Beckman Coulter FC 500 MPL, (excitation laser 488 nm). Data analysis is done using the Beckman Coulter software packages MXP for acquisition and CXP for data analysis which includes MFI calculation. Detection of HPV-E7 protein expression is based on morphology back-gating of FL1 histogram (logarithmic scale) with gating for dot plot FS (Forward Scatter) log/SS (Sideward Scatter) log and gating for histograms SS log.
In order to define the level of E7 protein expression and to study the extent of E7 protein steady state level reduction in E7 expressing cells in the presence of various compounds, FC analysis is implemented using the intracellular antibody labeling procedure for monoclonal antibodies to HPV E7. E7 signal intensities are analyzed from the obtained FL1 histograms at logarithmic scale. The FL1 single histogram graph represents the variation in the mean fluorescence intensity (MFI) channel for cells treated with selected compounds compared to cells not incubated with primary antibodies but incubated with secondary, which allows to test for auto-fluorescence, and non-compound treated cells as controls. Non-primary antibody-stained cells are used to set the acquisition parameters to zero. Decrease of the mean fluorescence intensity channel corresponds to a decrease in the expression of HPV16 E7 protein. Degradation of E7 in cells is calculated as percent (%) reduction in MFI(x-Me) using the following formulas: % Drel=(T−C)/T*100; i) relative degradation: % Dad=(T−C)/(T−CHX)*100; ii) adjusted degradation: • Drel=relative degradation, • Dad=adjusted degradation assuming CHX % Drel=100; • T=MFI of non-treated cells; • C=MFI of compound treated cells; • CH=MFI of cycloheximide (CHX) treated cells;
For comparison within one experiment i) the % relative degradation (Drel) is sufficient, whereas for comparison between two or more experiments ii) the adjusted degradation (Dad) is used and CHX steady state is set to a 100% degradation parameter.
1×10^6 freshly seeded CaSki cells (ATCC CRL-7915), are grown in 10 cm diameter cell culture dishes in RPMI1640, 10% FCS medium at 37° C. 5% CO2 overnight and then incubated in the presence of 10 μM Cycloheximide (CHX) 10 μM OC246 or with vehicle alone for four hours at 37° C. 5% CO2. Following this E7 protein is assessed by cytofluorimetric analysis using intracellular HPV16 E7 antibody labeling. […]

CaSki cells = assay: Cell cycle analysis using Propidium-Iodide staining (flow cytometry); type: cell-based, human; conditions: 48 hour incubation; for A*/5 μM (apoptosis as measured from total SUB G1 content) / A*/10 μM (apoptosis as measured from total SUB G1 content): no treatment 15.0; for G2/5 μM / G1/5 μM / G2/10 μM / G1/10 μM: cell cycle distribution; for G2/5 μM / G2/10 μM: no treatment 15.6; for G1/5 μM / G1/10 μM: no treatment 53.3
Description: Propidium-Iodide (PI) DNA staining is performed to facilitate cell cycle analysis. For PI-DNA staining, fixed cells and eventually antibody-stained cells are resuspended in 450 μl of PBS (per 10^6 cells) and incubated with 100 μg/ml RNase (stock 1 mg/ml, in PBS) for 10 minutes at 37° C. Cells are then incubated with 5 μg/106 cells of PI (stock 1 mg/ml in PBS) for 10 minutes at room temperature. Samples are stored at 4° C. until CF analysis.
CaSki cells were incubated with various compounds and cell cycle distribution of the cells was assessed using Propidium-Iodide staining.
In order to analyze the cytostatic versus the cytotoxic effect of OC compounds, cell cycle profiles were analyzed in vitro after 48 hour incubations using Flow Cytometry as a read out. For this a cell cycle analysis from selected OC E7 degrader compounds was conducted in CaSki cells. Using 6 well plates, 1.5×10^5 cells were seeded for each well and grown over night at 37° C. 5% CO2. For analysis of the cell cycle behavior, cells were analyzed in the presence of propidium Iodide (PI^−) by flow cytometry (FC). Briefly, cells were detached by trypsin digestion, all supernatants were included in the analysis, and fixed with 70% ice cold ethanol and stored at 4° C. until FC analysis using PI^− staining (1 mg/ml). At least 7000 events were acquired for each sample.

[2] = tested on: CaSki (ATCC CRM-CRL-1550); assay: Monolayer assay using Sulphorhodamine B (SRB) staining, CaSki; type: cell-based; conditions: Homo sapiens, Ca-Ski, read-out: EC50 mean [nM]
Description: Various cell culture cells grown as monolayers are harvested from exponential growing cultures after treatment with various OC compounds at different concentrations. For this depending on the cell line, 10.000 to 30.000 cells were plated in 96-well flat-bottom microtiter plates. After a 24 h recovery period to allow cells to resume exponential growth, supernatants are discarded and 100 μl of culture medium (eight control wells/plate) or culture medium with the test compound are added by a liquid handling robotic system (Microlab® Starlet, Hamilton) and treatment continued for 72 hrs. Compounds are applied at 9 concentrations and eight wells/concentration). At least three independent experiments are performed. For SRB staining, cells are fixed with SRB01 (Tab. 5) for 1 h at 4° C. (final concentration of TCA=10%) washed with a plate washer (Hydroflex, Tecan©) for five times with H2O; and stained with 100 μl of SRB02 at room temperature for 10 min following 4 washes in SRB03 and finally 100 μl of developer solution SRB04 for 5 minutes with shaking. Optical density is assessed using a plate-reader (Sunrise, Tecan©) at 540 nm.
Concentrations required for half maximal response of the compound for cell growth inhibition (EC50) is calculated by non-linear regression (log[conc. of inhibitor] versus response (% T/C)) using the analysis software GraphPad Prism®, Prism 5 for windows, version 5.01 (GraphPad Software Inc., CA).

[3] = tested on: cell signaling molecules (4E-BP1, p70 S6 kinase, Akt, PTPN14, p53, PD-L1); assay: Western blot of cell signaling molecules in CaSki cells; conditions: CaSki; for Phosphorylation of 4E-BP1 on Ser65 and the p70S6 kinase on Thr389: 6 h, order 10 μM VSP035, Torin 1, Torin 2, rapamycin, 5 μM VSP035, CGP 57380; for phosphorylation of AKT on Ser473: 6 h treatment
[4] = tested on: human cervical carcinoma (CaSki) xenograft; assay: CaSki high risk HPV16 human cervical carcinoma xenograft model; type: in vivo, nude mice
Description: The aim of this study was to assess the in vivo efficacy of OC246 and OC974 on a human cervical carcinoma (CaSki) xenograft model in nude mice. OC246 and OC974 were administered oral once daily for four times with three days off, for three cycles at 2 mg/kg/dose. Cisplatin (CDDP) was used as a reference compound with three weekly intravenous (q7dx3) administrations of 6 mg/kg.

T1 sequence (P03129 whole entry): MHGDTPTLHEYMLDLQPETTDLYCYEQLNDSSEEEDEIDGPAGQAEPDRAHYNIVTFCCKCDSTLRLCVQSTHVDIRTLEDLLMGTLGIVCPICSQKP

SMILES	inhibition at 1.25 µM [1]	% Dad (HPV16 E7 protein)	A*/5 μM (apoptosis as measured from total SUB G1 content) (CaSki cells)	A*/10 μM (apoptosis as measured from total SUB G1 content) (CaSki cells)	G2/5 μM (CaSki cells)	G1/5 μM (CaSki cells)	G2/10 μM (CaSki cells)	G1/10 μM (CaSki cells)	EC50 [2]	% Inhibition [1]	Phosphorylation of 4E-BP1 on Ser65 and the p70S6 kinase on Thr389 [3]	phosphorylation of AKT on Ser473 [3]	% TGI (Day 44): percentage tumor growth inhibition with respect to controls ([4]; OC246/OC974 os 2 mg/kg/day, 4 × week, 3 cycles, CDDP i.v. q7d × 3, 6 mg/kg)	Δ% on Day 44 ([4]; OC246/OC974 os 2 mg/kg/day, CDDP i.v. 6 mg/kg, control 100)	Tumor Volume Day 44 (mm^3 ± SD) ([4]; OC246/OC974 os daily 4 × week, 3 cycles, 2 mg/kg/day, CDDP i.v. q7d × 3, 6 mg/kg, control 1099 ± 503)	Δ% Body Weight ([4]; between first day of treatment (day 20) and Day 44, OC246/OC974 os 2 mg/kg/day, CDDP i.v. 6 mg/kg, control +4.9)
Cc1ccc(CN2C(=O)c3ccccc3[C@@H](C(=O)Nc3ccc(N4CCN(C)CC4)cc3)[C@@H]2c2ccc(C(F)(F)F)cc2)cc1 (relative stereo) [OC972]	5.37%	32%	12.8%	13.5%	16.9%	53.2%	15.9%	48.4%	67700 nM							
CN1CCN(c2cccc(NC(=O)[C@@H]3c4ccccc4C(=O)N(Cc4cccnc4)[C@H]3c3ccc(C(F)(F)F)cc3)c2)CC1 (relative stereo) [OC976]	27.1%	54%	11.4%	12.8%	9.3%	58.8%	16.9%	53.2%	4720 nM							
CCC(=O)N1CCN(c2ccc(-n3c(=O)ccc4cnc5ccc(-c6cnc7ccccc7c6)cc5c43)cc2C(F)(F)F)CC1 [Torin 1, reference compound]										7.00%	inhibited or strongly reduced	inhibited				
CN1CCN(c2cccc(NC(=O)[C@@H]3c4ccccc4C(=O)N(Cc4ccncc4)[C@H]3c3ccc(C(F)(F)F)cc3)c2)CC1 (relative stereo) [OC975]	0.17%	67%	13.9%	11.8%	10.4%	49.9%	10.5%	51.4%	4340 nM							
Cc1ccc(CN2C(=O)c3ccccc3[C@@H](C(=O)Nc3cccc(N4CCOCC4)c3)[C@@H]2c2ccc(C(F)(F)F)cc2)cc1 (relative stereo) [OC973]	0.95%	20%	11.1%	13.0%	17.6%	52.1%	11.5%	52.6%	6720 nM							
[NH2][Pt]([NH2])([Cl])[Cl] [CDDP, Cisplatin, reference compound]													79.2%	14%	242 ± 182 mm^3	−10.2%
Cc1ccc(CN2C(=O)c3ccccc3[C@@H](C(=O)Nc3cccc(N4CCN(C)CC4)c3)[C@@H]2c2ccc(C(F)(F)F)nc2)cc1 (relative stereo) [OC968]	2.09%	37%	11.9%	11.6%	18.0%	52.7%	19.7%	48.0%	10600 nM							
Nc1ccc(-c2ccc3ncc4ccc(=O)n(-c5cccc(C(F)(F)F)c5)c4c3c2)cn1 [Torin2, reference compound]										1.46%	inhibited or strongly reduced	inhibited				
